Laboratory results reported in patent publication US11603387B2, “SOCS mimetics for the treatment of diseases” (UNIVERSITY OF FLORIDA RESEARCH FOUNDATION, INC., priority 2014, dated 2023).

Legend:
STAT1 = test: pSTAT1/STAT1 western blotting under Th17 inducing conditions; type: cell-based, mouse; conditions: SOCS1+/− CD4+ T cells, SOCS1-KIR peptide (20 μM)
Procedure: (§1) FIGS. 5A-5D. […] (FIGS. 5A and 5B) SOCS1^+/+ or SOCS1^+/− CD4^+CD25^− T cells were stimulated with αCD3 antibodies alone or with αCD3+SOCS1-KIR peptide (20 μM) for 72 h. (FIG. 5A) CD25 expressing cells were assessed by flow cytometry. Results are representative of 4 independent experiments. (FIG. 5B) Proliferation was assessed by CFSE labeling and flow cytometry, cell counts, and ^3[H] thymidine incorporation. n=4. (FIGS. 5C and 5D) SOCS1^+/+ or SOCS1^+/− CD4^+CD25^− T cells were placed under Th17 inducing conditions in the absence or presence of SOCS1-KIR peptide (20 μM) (FIG. 5C) IFNγ expression, relative to β-actin., was assessed by qPCR (left) and ELISA (right) (n=4). (FIG. 5D) pSTAT1 and STAT1 protein expressions were assessed by western blotting. Results are representative of 4 independent experiments. Statistical comparisons were performed using Mann-Whitney U test. (*P<0.05). iTh17=Th17 inducing conditions, WT=SOCS1^+/+, and HT=SOCS1^+/−.
MACS purified CD4^+CD25^− T cells were stimulated with anti-CD3 Ab (10 μg/ml), anti-CD3 (10 μg/ml) and anti-CD28 (1.5 μg/ml) Abs, or Th17 inducing conditions in the presence or absence of SOCS1-KIR peptide as previously described. […] Equal quantities of protein were loaded and separated in 4%-12% SDS-PAGE gel (Biorad). […]

IFNγ = IFNγ expression by qPCR and ELISA under Th17 inducing conditions; type: cell-based, mouse; conditions: SOCS1-KIR peptide (20 μM)
Procedure: as §1
CD4^+CD25^− T lymphocytes (1×10^5/well) were cultured in triplicate at 37° C. (5% CO2) in RPMI 1640 (Cellgro 10-040-CV) containing 10% FBS (INVITROGEN™ GIBCO®) 1% antibiotic/antimycotic (Herndon, Va.), and 50 μM β-ME (MP Biomedicals, Solon, Ohio). […] Cells were incubated for 72 hours and assessed for Treg differentiation by ICS for Foxp3. […] Cells were collected after 5 days and assessed for activation and Th17 differentiation. […]

For “DTHFRTFRSHSDYRRI (SOCS1-KIR peptide) [SOCS1 mimetic peptide corresponding to the KIR region of SOCS1]”, the “STAT1 activation (phosphorylation)” value (STAT1) was “drastically reduced the enhanced STAT1 activation”, the “Reduction in IFNγ protein production” value (IFNγ; ELISA) was 2 fold and the “Reduction in IFNγ mRNA expression” value (IFNγ; qPCR relative to β-actin) was 2 fold.
